In experiment [1] the test system is pigmented reconstructed skins. The experiment can be described thus: Interleukin secretion (Fluorokine MAP) of pigmented reconstructed skins under repeated solar irradiation with anti-oxidant actives. It is filed as cell-based. As to conditions: for restoring cell viability and synthesis of pro-inflammatory interleukins after solar irradiation: actives at 3% in a cosmetic formulation; for IL1 beta secretion (Fluorokine MAP) / IL6 secretion (Fluorokine MAP) / IL8 secretion (Fluorokine MAP) / TNF alpha secretion (Fluorokine MAP): solar irradiation 561 KJ/m^2 twice per week for two weeks, 8 μl cosmetic formulation with active at 3%, 10 days. The procedure:
The reconstructed dermis comprising cells called <<stressed cells>> or <<reference cells>> are then incubated in a medium without serum (FBM, Promocell) for 24 hours. The cell viability in the matrices is evaluated by a test with MTT (methylthiazoletetrazolium) and is expressed in percentage of the non-irradiated control. The media are collected, centrifuged, and the cytokines content is determined by the Fluorokine MAP kit (R&D Systems). Briefly, 50 μl of standards or of samples are pipetted into identified wells. 50 μl of microparticles immobilizing specific antibodies of different cytokines are added into the wells as a function of a pre-defined plate plan. After one hour of incubation under orbital agitation, and elimination of the non-fixed substances by washing, labeled antibodies which are specific of different cytokines are added into the wells and are incubated for 2 hours under orbital agitation. After washing, the microparticles are suspended in washing buffer, are agitated for 1 minute under orbital agitation. The reading is carried out immediately on a Luminex 100 Analyser (R&D Systems). The contents of the different cytokines which are present in the media analyzed are determined by virtue of calibration ranges made with highly purified recombinant human cytokines. This technique enables an experimentation to analyze the cellular secretion of various cytokines (IL-1β, IL-2, IL-4, IL-6, IL-8, IL-10, TNFα, GM-CSF, G-CSF, VEGF, bFGF, G-CSF, IFNγ).
The cells extracted are obtained from a mammary biopsy non-exposed to the stress studied. 400,000 fibroblasts, amplified until passage 5 (5th amplification by trypsination) as described in Example 1, are sown on dermal substrates based on surfaced sponges of collagen, in a DMEM-Glutamax culture medium supplemented with 10% of hyclone II calf serum, with ascorbic acid-2-phosphate at a final concentration of 1 millimolar, with EGF or Epidermal growth factor at a final concentration of 10 ng/mL, with penicillin at a final concentration of 100 IU/milliliter, with amphotericin B at a final concentration of 1 microgram/milliliter, and with gentamycin at a final concentration of 20 micrograms/milliliter, and for a period of culture of 14 days.
Then, 400,000 keratinocytes and 10,000 melanocytes, amplified until passage 2 (2nd amplification by trypsination) as described in Example 1, are sown on the dermal equivalents in a DMEM-Glutamax/Ham F-12 (ratio 3/1 v/v) culture medium supplemented with 10% of Hyclone II calf serum, with ascorbic acid-2-phosphate at a final concentration of 1 millimolar, with EGF at a final concentration of 10 ng/mL, with hydrocortisone at a final concentration of 0.4 micrograms/milliliter, with umulin at a final concentration of 0.12 IU/milliliter, with isuprel at a final concentration of 0.4 micrograms/milliliter, with triiodothyronine at a final concentration of 2.10^−9 molar, with adenine at a final concentration of 24.3 micrograms/milliliter, with penicillin at a final concentration of 100 IU/milliliter, with amphotericin B at a final concentration of 1 microgram/milliliter, and with gentamycin at a final concentration of 20 micrograms/milliliter, and for a period of immersion culture of 7 days.
The cultures are then placed at the air-liquid interface for 14 days in the same culture medium as that used for the immersion culture, except the calf serum, the hydrocortisone, the isuprel, the triiodothyronine and the umulin.
Twice per week and for two weeks, the immersion medium is eliminated and replaced by PBS at pH 7.4. Certain pigmented reconstructed skins present in the inserts are preserved at ambient temperature; this model comprises cells which are called “reference cells”. Other pigmented reconstructed skins present in the inserts are irradiated at 561 KJ/m^2 (corresponding to an average hour of exposure in Central Europe) with the aid of a solar irradiator Suntest CPS+ (ATLAS); this model comprises cells which are called “stressed cells”.

A further experiment relates to reconstructed skins. How it is done:
Reconstructed skins are made according to the protocol described in Example 6.
The UVB irradiation at the rate of 50 mJ/cm^2 is made for half the samples comprising <> cells. The other samples are preserved at ambient temperature under the same conditions, and constitute samples comprising <> cells.
At the end of experimentation, the content of tropoelastin mRNA, collagen of type I and collagen of type III is evaluated by a real time RT-PCR technique. For this, couples of primers enabling the amplification of specific fragments of tropoelastin, of collagen of type I and of collagen of type III (sense 18/antisense 19 and sense 18/antisense 20, respectively) and actin sequence primers (541 pairs of bases) were used. After extraction in TriReagent® (Sigma) and purification of the RNAs according to the protocol of the supplier, the reactions of RT-PCR (Reverse Polymerase Transcription Chain reactions) are carried out by quantitative real time RT-PCR with the aid of the <<Opticon>> system (MJ Research).
The reaction mixture (50 μl) introduced into the well is the following, for each sample:
10 μl of RNA at the concentration of 5 ng/μl.
The primers of the various labelers used
Reaction mixture (Qiagen-25 μl 2×QuantiTect SYBR Green RT-PCR master mix containing 5 mM MgCl2+0.5 μl QuantiTect RT mix), the labeler SYBR Green I inserting itself in the DNA double strand during elongation step).
Reverse transcription: 30 min at 50° C.,
PCR reactions: [15 sec at 94° C., 30 sec at 60° C. and 30 sec at 72° C.], 50 cycles.
The absence of contamination and the purity of the products amplified are verified by the melting curves of the amplified PCR products. The products having a double peak or an abnormal melting temperature are eliminated.
The incorporation of fluorescence in the amplified DNA was evaluated continuously during the PCR cycles. This system enables obtaining fluorescence measurement curves as a function of the number of PCR cycles and thus to evaluate a relative quantity of amplified DNA.
In order to take account of the:cell population present in the reconstructed skins, all the results were attributed to the signal <>, used as housekeeping gene.
According to the experimentation, the measurement threshold of the C(T) (=cycle threshold) is fixed for T between 0.05 and 0.01 and then an arbitrary unit of measurement is calculated for each gene according to the formula:
Sgene <>=10^7X(½)^C(T)gene <<X>>
C(T)gene <> signifying the measurement threshold of the C(T) (Cycle Threshold) of the gene <>.
The values of the genes of interest are attributed to the signal <> by calculation of the ratio:
These ratios are compared between the treated and non-treated samples.

In experiment [2] the test system is reconstructed gingival mucous membrane epithelia. Nature of the experiment: mRNA Expression Array on reconstructed gingival mucous membrane epithelia treated with irritant/sensitizing agents or actives. The class given is cell-based. As to conditions: (treated/non-stressed)x100; 20 μl per epithelium 1 h, then 24 h; SLS 5%, LPS 1000 U/ml, Prednisolone 10 mM, Inhipase 3%. The text has this: 1 to 2.10^6 epithelial cells of gingival mucous membrane called <<reference gingival mucous membrane epithelia cells>> (gingival biopsy, Passage 3 (3rd amplification by trypsination)), extracted as described in Example 1, are sown in Boyden chamber-type inserts (membrane of porosity 0.4 μm and diameter 10 mm—fibroblast nutrient under layer), in a DMEM-Glutamax/Ham F-12 (ratio 3/1 v/v) culture medium supplemented with 10% of Hyclone II calf serum, with ascorbic acid-2-phosphate at a final concentration of 1 millimolar, with EGF at a final concentration of 10 ng/mL, with hydrocortisone at a final concentration of 0.4 micrograms/milliliter, with umulin at a final concentration of 0.12 IU/milliliter, with isuprel at a final concentration of 0.4 micrograms/milliliter, with triiodothyronine at a final concentration of 2.10^−9 molar, with adenine at a final concentration of 24.3 micrograms/milliliter, with penicillin at a final concentration of 100 IU/milliliter, with amphotericin B at a final concentration of 1 microgram/milliliter, and with gentamycin at a final concentration of 20 micrograms/milliliter, and for a period of culture by immersion of 3 to 8 days.
The cultures of epithelial cells are then maintained in immersion for 12 to 18 days in the same culture medium as that used for the immersion culture, except the percentage of calf serum which is lowered by 10% to 1%.
At the end of experimentation, the medium is eliminated and replaced with PBS pH 7.4, and the reconstructed epithelia Which are present in the inserts are stressed by various potentially irritant or sensitizing agents, at the rate of 20 μl per epithelium and for one hour: 5% sodium lauryl sulfate (SLS), Lipopolysaccharide (LPS) 1000 U/ml, an anti-inflammatory agent Prednisolone 10 mM (Sigma) and an active Inhipase® 3% (extract of the root of pueraria lobata, Coletica) also at the rate of 20 μl per epithelium, for 1 hour. The agents applied on the reconstructed epithelia are then eliminated and then the reconstructed epithelia are incubated for 24 additional hours in immersion medium without calf serum. Certain reconstructed epithelia are analyzed in terms of cell viability by a test with MTT (methylthiazoletetrazolium). Other reconstructed epithelia are scraped off and taken up into Tri Reagent® (T9424 Sigma, St Louis USA) and then extracted with chloroform. After centrifugation at 12,000 g for 15 minutes at 4° C., the RNAs are found in the upper layer.
The determination of the mRNAs of the epithelia is made by Expression Array (R&D System), according to the protocol defined by the supplier.

Where [3] appears, read: UVB 50 mJ/cm^2, then 24 h with active at 1%.
Where [4] appears, read: UVB 50 mJ/cm^2, then 24 h with active at 3%.

Where two headings read alike, the source gives them in different places.

In the case of Quercitine Caprylate [Flavenger ®], in experiment [1], the “restoring cell viability and synthesis of pro-inflammatory interleukins after solar irradiation” value is recorded as “have shown an effectiveness capable of tending to restoring the reference level for these two parameters”; the “IL1 beta secretion (Fluorokine MAP)” value is 97 pg/mL; the “IL6 secretion (Fluorokine MAP)” value was 426 pg/mL; the “IL8 secretion (Fluorokine MAP)” value turned out to be 294 pg/mL. Besides, the “TNF alpha secretion (Fluorokine MAP)” value in experiment [1] turned out to be 89 pg/mL. Also, the “limiting the UVB-induced increase in RNAs of collagen type I, type III and elastin” value with reconstructed skins (1 and 3%) is “enables limiting the effects of the UVB stress induced by restoring, in a dose-dependent manner, the synthesis of these molecules”. Moreover, in the experiment on reconstructed skins (setting [3]), the “Collagen I mRNA, ratio R = Sgene/Sactin” value came out at 0.94; the “Collagen III mRNA, ratio R = Sgene/Sactin” value is 1.37; the “Elastin mRNA, ratio R = Sgene/Sactin” value came out at 4.87. In the experiment with reconstructed skins (setting [4]), the “Collagen I mRNA, ratio R = Sgene/Sactin” value amounted to 0.92; the “Collagen III mRNA, ratio R = Sgene/Sactin” value is listed as 1.26; the “Elastin mRNA, ratio R = Sgene/Sactin” value is listed as 4.61.

On to `C[C@]12C=CC(=O)C=C1CC[C@@H]1[C@@H]2[C@@H](O)C[C@@]2(C)[C@H]1CC[C@]2(O)C(=O)CO` [Prednisolone], for which, in experiment [2], the “IL1α mRNA, factor of variation with respect to the non-stressed control” value worked out at 62; the “IL1β mRNA, factor of variation with respect to the non-stressed control” value was 75; the “IL6 mRNA, factor of variation with respect to the non-stressed control” value was determined as 81; the “IL7 mRNA, factor of variation with respect to the non-stressed control” value is 102. In experiment [2], the “IL8 mRNA, factor of variation with respect to the non-stressed control” value was determined as 105; the “IL10 mRNA, factor of variation with respect to the non-stressed control” value was 152; the “IL11 mRNA, factor of variation with respect to the non-stressed control” value is 101; the “IL12 mRNA, factor of variation with respect to the non-stressed control” value turned out to be 67. In experiment [2], the “IL15 mRNA, factor of variation with respect to the non-stressed control” value stood at 99; the “IL-1R AcP mRNA, factor of variation with respect to the non-stressed control” value is recorded as 95; the “IL-1RI mRNA, factor of variation with respect to the non-stressed control” value was determined as 83; the “IL-1RII mRNA, factor of variation with respect to the non-stressed control” value was determined as 88. Further, in experiment [2], the “IL-1ra mRNA, factor of variation with respect to the non-stressed control” value is 112; the “PLA2 mRNA, factor of variation with respect to the non-stressed control” value was 93; the “TNFα mRNA, factor of variation with respect to the non-stressed control” value was 67.

Take Hesperitine Laurate [Flavagrum ®]: in experiment [1], the “restoring cell viability and synthesis of pro-inflammatory interleukins after solar irradiation” value is listed as “have shown an effectiveness capable of tending to restoring the reference level for these two parameters”; the “IL1 beta secretion (Fluorokine MAP)” value turned out to be 125 pg/mL; the “IL6 secretion (Fluorokine MAP)” value was determined as 452 pg/mL; the “IL8 secretion (Fluorokine MAP)” value was 312 pg/mL. Also, the “TNF alpha secretion (Fluorokine MAP)” value in experiment [1] is 105 pg/mL.

In the case of `CCCCCCCCCCCCOS(=O)(=O)[O-].[Na+]` [SLS, sodium lauryl sulfate], in experiment [2], the “IL1α mRNA, factor of variation with respect to the non-stressed control” value stood at 241; the “IL1β mRNA, factor of variation with respect to the non-stressed control” value was found to be 114; the “IL6 mRNA, factor of variation with respect to the non-stressed control” value is recorded as 163; the “IL7 mRNA, factor of variation with respect to the non-stressed control” value came to 127. In addition, in experiment [2], the “IL8 mRNA, factor of variation with respect to the non-stressed control” value is listed as 183; the “IL10 mRNA, factor of variation with respect to the non-stressed control” value is given as 75; the “IL11 mRNA, factor of variation with respect to the non-stressed control” value was determined as 112; the “IL12 mRNA, factor of variation with respect to the non-stressed control” value is reported as 132. In addition, in experiment [2], the “IL15 mRNA, factor of variation with respect to the non-stressed control” value stood at 147; the “IL-1R AcP mRNA, factor of variation with respect to the non-stressed control” value came to 102; the “IL-1RI mRNA, factor of variation with respect to the non-stressed control” value is 154; the “IL-1RII mRNA, factor of variation with respect to the non-stressed control” value worked out at 137. Besides, in experiment [2], the “IL-1ra mRNA, factor of variation with respect to the non-stressed control” value is 82; the “PLA2 mRNA, factor of variation with respect to the non-stressed control” value is recorded as 102; the “TNFα mRNA, factor of variation with respect to the non-stressed control” value was 213.

The values above are taken from patent US20040096815A1, “Method of identifying an eventual modification of at least one biological parameter making use of living cells which are subjected to a stress and living cells which are not subjected to this same stress” (COLETICA, priority 2002, published 2004).
